Data: patent US11891386B2, “Indole compounds and their use” (ARIAGEN, INC., priority 2017, dated 2024)

What was measured:
human hepatocytes = assay: Hepatocyte intrinsic clearance assay, human hepatocytes; type: in vitro ADME; conditions: for CLint (μL/min/10^6 ells) / EH (%) hepatic extraction ratio: Human Hepatocytes; for CLint (μL/min/10^6 ells): 1 μM test compound; for EH (%) hepatic extraction ratio: well stirred liver model, fu=1; for EH lower as compared to ARI-002, in words / times lower clearance as compared to ARI-002 / clearance / metabolic profile, in words: human hepatocytes
Source text: The liver is an important organ in the body for drug metabolism. This Example describes hepatocyte intrinsic clearance assays using both human and mouse hepatocytes to evaluate the metabolic stability of the indole compounds disclosed herein. The parameters measured include t1/2 (half-life), CLint (intrinsic clearance), and EH (hepatic extraction ratio).
Testosterone (Lot FE111011-01) was obtained from Cerilliant (Round Rock, TX). 7-hydroxycoumarin (Lot 11631ED) was obtained from Sigma Aldrich (St. Louis, MO). Cryopreserved human hepatocytes pooled from ten donor males (X008001), cryopreserved male IRC/CD-1 mouse hepatocytes (M005052), INVITROGRO HI Medium (incubation), and INVITROGRO HT Medium (thawing) were obtained from Bioreclamation IVT (Baltimore, MD). All solvents were obtained from commercial sources and used without further purification.
Each test compound was prepared as a 1 mM stock solution in DMSO. A 2 μM solution of test compound and positive controls were prepared in INVITROGRO HI Medium (incubation). These solutions were pre-warmed in a sterile incubator set to maintain 37° C., 5% CO2, and 98% humidity. Cryopreserved hepatocytes were prepared at a concentration of 2×10^6 living cells/mL in incubation media and pre-warmed in the incubator. The compound solutions and hepatocyte mixtures were then combined at a ratio of 1:1 (v:v). The final volume of the reaction mixture was 750 μL, containing 1 μM test compound (10 μM for 7-hydroxycoumarin) and […]. The reaction mixture was placed in the incubator on a plate shaker. After 0, 15, 30, 60, 90, and 120 minutes of incubation, 100 μL of reaction mixtures were removed from the incubation plate and mixed with 150 μL of ice-cold acetonitrile in a designated well of a 96-well crash plate. The 96-well crash plate was placed on ice for 15 min, and samples were centrifuged (3,600 RPM, 10 min, 4° C.) to precipitate protein. The supernatants were diluted 1:1 (v:v) with water containing 0.15 μM verapamil and/or 1 μM tolbutamide (internal standards for positive and negative modes, respectively) in a 96-well shallow injection plate. This plate was sealed for LC-MS analysis. All measurements were done in duplicate.
The residual compound remaining (% R) was determined from LC-MS peak areas by comparison to the zero time point. Metabolic half-life (t1/2) and intrinsic clearance (CLint) values were calculated from the slope of the plot of ln (% R) vs. time and the concentration of hepatocytes present in the incubation. Percent remaining at 60 minutes was calculated by plugging in the 60 minute value into the slope equation generated by the percent remaining time points.
In vivo hepatic clearance CLH was calculated using the well stirred liver model according to the following equation:
[formula] where QH is the total liver blood flow, fu is unbound fraction of the drug, and CL′int is defined as follows: CL′int=CLint×(10^6 cells/g of liver weight)×(g liver weight/kg of body weight). In the first approximation, used in this study, fu=1.
Hepatic extraction ratio EH was calculated using the following equation:
[formula] Corresponding physiological parameters used in calculations for all species are shown below in Table 5.

[1] = test system: IL-21 secretion from human CD4+ T cells; assay: Suppression of IL-21 secretion by activated Th17 cells (ALPHALISA); type: cell-based; conditions: for IC50: 120 h, human CD4+ T cells under Th17 stimulation, 5 days; for potency in suppressing IL-21 secretion, in words: human CD4+ T cells
Source text: IL-21 is a pro-inflammatory cytokine secreted by CD4^+ Th17 cells and is thought to serve as a T-cell growth factor playing overlapping roles with IL-2. This Example describes a study that measured the IC50 values of the indole compounds disclosed herein for suppressing IL-21 secretion from human CD4^+ T cells that had been treated with stimulatory conditions that gave rise to TH17 cells (see, e.g., Dobritsa et al., J Biomol Screen. 18(1):75-84 (2013)).
Human CD4^+ T cells were purchased from Lonza Walkersville Inc. (Walkersville, MD). DMSO was obtained from Sigma (St. Louis, MO). Greiner cell culture plates, Gibco DMEM cell culture medium, media supplements, and antibiotics, as well as DYNABEADS Human T-Activator CD3/CD28 and R&D Systems TGF-β, IL-1β and IL-23 and Invitrogen IL-6 cytokines, were purchased through Fisher Scientific (Pittsburgh, PA). ALPHALISA assay plates and the Human Interleukin-21 ALPHALISA kit was obtained from Perkin Elmer (Boston, MA).
Cell culture plates were pre-coated with test compounds in serial dilutions for generating a 10-point, 3-fold dose response curve with a top concentration of 1 μM or 100 nM. To do this, compounds were dissolved in DMSO and added to an ECHO qualified plate for transfer to the cell culture plate with the ECHO555. The indole compounds to be tested were dissolved in […] and wells were backfilled with DMSO so that all treatments received 0.1% DMSO final volume. Positive control (0% inhibition) wells, in which compounds were replaced with […], were included on each plate. At least 15×10^6 frozen CD4^+ T cells per plate of compounds were thawed in a 37° C. water bath, and the cells were washed twice with 10 mL of the complete medium (DMEM supplemented with 10% fetal bovine serum (FBS), 100 U/mL penicillin, and 100 μg/mL streptomycin), followed by centrifugation (250×g, 10 min). Cells were re-suspended to the desired density, and cultured in 384-well treated sterile cell culture plates in a total volume of 50 μL per well. Each plate included wells with induced and un-induced cells.
Induced cells were activated in the complete medium with DYNABEADS Human T-Activator CD3/CD28 at a bead-to-cell ratio of 1:2.5 and stimulated with the following cytokines: transforming growth factor-β (TGF-β, 5 ng/mL), IL-6 (20 ng/mL), IL-23 (20 ng/mL), and IL-1β (10 ng/mL).
Un-induced cells were left in complete medium with no additional supplements. Plates were incubated at 37° C., 5% CO2 for a total of 5 days. Upon completion of the 5 day incubation period, cells were spun down (1,000×g, 1 min) and supernatant was transferred to the ALPHALISA assay plate using the Mosquito HTS liquid handler (TTP Labtech Inc., Cambridge, MA).
IL-21 levels in cell supernatants and cell-free control samples were measured using the ALPHALISA assay kit from Perkin Elmer, following the manufacturer's instructions. The assay was run at room temperature in 384-well ALPHAPLATES (cat. 6005350; Boston, MA). Briefly, immediately after transferring the cell supernatant to the assay plate, anti-IL-21 acceptor beads were added with the CERTUS FLEX liquid handler (LEAP Technologies, Morrisville, NC). The plate was sealed, spun down and incubated for 30 minutes. After incubation, the seal was removed, anti-IL-21 biotinylated antibody was added with the CERTUS FLEX, and the plate was sealed again, spun down and incubated for 60 minutes. Next, the seal was removed, streptavidin-coated donor beads were added with the CERTUS FLEX, and the plate was sealed, spun down and incubated for another 60 minutes. Finally, the seal was removed and the plate was read using the ENVISION reader (Perkin Elmer, Boston, MA) set with an excitation filter of 680 nm and an emission filter of 615 nm. Two independent IL-21 standard dilution curves were run per plate with analyte provided in the ALPHALISA kit.
For estimation of the assay performance, Z′ values were calculated for each plate, comparing positive and negative controls. […]

Compound | CLint (μL/min/10^6 ells) (human hepatocytes) | EH (%) hepatic extraction ratio (human hepatocytes) [%] | IC50 [1] [nM] | potency in suppressing IL-21 secretion, in words [1] | EH lower as compared to ARI-002, in words (human hepatocytes) | times lower clearance as compared to ARI-002 (human hepatocytes) [times] | clearance / metabolic profile, in words (human hepatocytes)
Cc1nnc(-c2csc(C(=O)c3c[nH]c4ccccc34)n2)o1 [ARI-060, (1H-indol-3-yl)(4-(5-methyl-1,3,4-oxadiazol-2-yl)thiazol-2-yl)methanone] | 2.5 | 24 | 110 | among the least potent |  |  | 
O=C(c1nc(-c2nnco2)cs1)c1c[nH]c2ccccc12 [ARI-056, (4-(1,3,4-oxadiazol-2-yl)thiazol-2-yl)(1H-indol-3-yl)methanone] | 17.7 | 68 | 4.9 |  |  |  | 
NCc1nnc(-c2csc(C(=O)c3c[nH]c4c(F)cccc34)n2)o1 [ARI-145, (4-(5-(aminomethyl)-1,3,4-oxadiazol-2-yl)thiazol-2-yl)(7-fluoro-1H-indol-3-yl)methanone] | 4.1 | 33 | 46.9 |  |  |  | 
CCC(=O)c1csc(C(=O)c2c[nH]c3cc(F)c(F)cc23)n1 [ARI-149, 1-(2-(5,6-difluoro-1H-indole-3-carbonyl)thiazol-4-yl)propan-1-one] | 5.3 | 39 | 30.3 |  |  |  | 
Cc1nc(-c2csc(C(=O)c3c[nH]c4ccccc34)n2)no1 [ARI-030, (1H-indol-3-yl)(4-(5-methyl-1,2,4-oxadiazol-3-yl)thiazol-2-yl)methanone] | 1.8 | 18 | 40 | among the least potent |  |  | 
CCC(=O)c1csc(C(=O)c2c[nH]c3cc(F)ccc23)n1 [ARI-143, 1-(2-(6-fluoro-1H-indole-3-carbonyl)thiazol-4-yl)propan-1-one] | 4.5 | 36 | 18.8 |  | two times | 30 | 
Nc1nnc(-c2csc(C(=O)c3c[nH]c4cc(Cl)c(Cl)cc34)n2)o1 [ARI-120, (4-(5-amino-1,3,4-oxadiazol-2-yl)thiazol-2-yl)(5,6-dichloro-1H-indol-3-yl)methanone] | 0.8 | 8.5 | 0.3 | most potent |  |  | low clearance
COC(=O)c1csc(C(=O)c2c[nH]c3ccc(F)cc23)n1 [ARI-066, methyl 2-(5-fluoro-1H-indole-3-carbonyl)thiazole-4-carboxylate] | 98.7 | 92 | 48.6 |  |  |  | 
Nc1nnc(-c2csc(C(=O)c3c[nH]c4ccccc34)n2)s1 [ARI-090, (4-(5-amino-1,3,4-thiadiazol-2-yl)thiazol-2-yl)(1H-indol-3-yl)methanone] | 5.3 | 39 | 8.4 |  |  |  | 
Nc1nnc(-c2csc(C(=O)c3c[nH]c4ccc(F)cc34)n2)o1 [ARI-148, (4-(5-amino-1,3,4-oxadiazol-2-yl)thiazol-2-yl)(5-fluoro-1H-indol-3-yl)methanone] | 2.5 | 23 | 5.9 |  |  |  | 
Cc1noc(-c2csc(C(=O)c3c[nH]c4ccccc34)n2)n1 [ARI-031, (1H-indol-3-yl)(4-(3-methyl-1,2,4-oxadiazol-5-yl)thiazol-2-yl)methanone] | 0.7 | 8 | 42.6 | among the least potent |  |  | low clearance
CCC(=O)c1csc(C(=O)c2c[nH]c3ccc(F)cc23)n1 [ARI-087, 1-(2-(5-fluoro-1H-indole-3-carbonyl)thiazol-4-yl)propan-1-one] | 6.0 | 43 | 25.4 |  | two times lower | 23 | 
CCC(=O)c1csc(C(=O)c2c[nH]c3ccc(Cl)cc23)n1 [ARI-067, 1-(2-(5-chloro-1H-indole-3-carbonyl)thiazol-4-yl)propan-1-one] | 2.3 | 22 | 6.3 |  |  |  | 
NCc1nc(-c2csc(C(=O)c3c[nH]c4c(F)cccc34)n2)no1 [ARI-146, (4-(5-(aminomethyl)-1,2,4-oxadiazol-3-yl)thiazol-2-yl)(7-fluoro-1H-indol-3-yl)methanone] | 1.9 | 19 | 13.4 |  |  |  | 
CCC(=O)c1csc(C(=O)c2c[nH]c3cccc(F)c23)n1 [ARI-142, 1-(2-(4-fluoro-1H-indole-3-carbonyl)thiazol-4-yl)propan-1-one] | 8.1 | 50 | 209 | least active in suppressing IL-21 secretion |  |  | 
CNC(=O)c1csc(C(=O)c2c[nH]c3ccccc23)n1 [ARI-004] | 40.2 | 65 | 231 | weak activity |  |  | 
